{"source": "patent US12043670B2", "about": "“Anti-BCMA antibody-drug conjugates and methods of use” (Eisai R&D Management Co., Ltd., priority 2020, dated 2024)", "key": {"[1]": {"tested_on": "splicing of Ad2.1 pre-mRNA in HeLa nuclear extract", "experiment": "In vitro splicing (IVS), qPCR readout, Ad2.1 substrate", "type": "biochemical", "experimental": "To evaluate payload activity in a cell-free system, an in vitro splicing assay was performed. The payloads were incubated with nuclear extracts and pre-mRNA substrate minigenes.\nHeLa nuclear extract preparation: HeLa S3 cell pellets were resuspended in hypotonic buffer (10 mM HEPES pH 7.9, 1.5 mM MgCl2, 10 mM KCl, 0.2 mM PMSF, 0.5 mM DTT) and the suspension was brought up to a total of 5 packed cell volume (PCV). After centrifugation, the supernatant was discarded, and the cells were brought up to 3 PCV with hypotonic buffer and incubated on ice for 10 min. Cells were lysed using a dounce homogenizer and then centrifuged. The supernatant was discarded, and the pellet was resuspended with ½ packed nuclear volume (PNV) of low salt buffer (20 mM HEPES pH 7.9, 1.5 mM MgCl2, 20 mM KCl, 0.2 mM EDTA, 25% glycerol, 0.2 mM PMSF, 0.5 mM DTT), followed by ½ PNV of high salt buffer (same as low salt buffer except 1.4 M KCl). The nuclei were gently mixed for 30 min before centrifuging. The supernatant (nuclear extract) was then dialyzed into storage buffer (20 mM HEPES pH 7.9, 100 mM KCl, 0.2 mM EDTA, 20% glycerol, 0.2 mM PMSF, 0.5 mM DTT). Protein concentration was determined using NanoDrop 8000 UV-Vis spectrophotometer (ThermoFisher Scientific). […]"}, "OPM2 cells": {"tested_on": "OPM2 cells", "experiment": "CellTiter-Glo cell viability, OPM2 (normal serum)", "type": "cell-based, human", "settings": "for GI50: Homo sapiens"}, "RPMI-8226 cells": {"tested_on": "RPMI-8226 cells", "experiment": "6-day CellTiter-Glo cell viability, RPMI-8226", "type": "cell-based, human"}, "U266B1 cells": {"tested_on": "U266B1 cells", "experiment": "6-day CellTiter-Glo cell viability, U266B1", "type": "cell-based, human"}, "KMS-11 cells": {"tested_on": "KMS-11 cells", "experiment": "6-day CellTiter-Glo cell viability, KMS-11", "type": "cell-based, human"}, "[2]": {"experiment": "Chemical stability in buffer pH 5.5", "type": "physicochemical", "settings": "Mcilvane (Citrate-Phosphate) buffer pH 5.5, 37° C., read-out: Stability %, Mean, t1/2 pH 5.5 (converted)", "experimental": "Payloads were incubated in Mcilvane (Citrate-Phosphate) buffer, pH 5.5 (Boston Bioproducts; #BB-2466) at a final concentration of 20 μM (less than 0.5% DMSO from stock solution). The payload solution and the internal standard were pipetted into 96-well plates, run on UPLC (Waters Aquity H class), and analyzed for initial chromatographic signal (t=0). The column was a Waters UPLC HSS T31.8 μm 2.1×50 mm column (#186003538). A gradient of mobile phase A from 95% to 10% was employed over 1 min, where A was 0.1% formic acid in water and mobile phase B was 0.1% formic acid in acetonitrile (flow rate 0.9 mL/min). The remainder of the payload solution was kept in a plate shaker at 37° C. (Eppendorf ThermoMixer). Sample analyses by UPLC were repeated at 24, 72, and 96 hours post-incubation at 37° C. The area ratio response of the payload and internal standard was determined for three time points: time 0, day 1, and either day 3 or day 4. Time 0 was set to 100. The area ratio responses of the later time points were compared to time 0. Percent remaining was calculated as follows: (Area Ratio day X/Area Ratio time 0)*100=% remaining. The slope of the line was calculated in Excel comparing the log of % remaining and time point."}}, "note": "Read-outs that look alike come from different tables or passages of the source.", "data": [{"smiles": "CC[C@H](O)[C@@H](C)[C@H]1O[C@@H]1C[C@@](C)(O)/C=C/C=C(\\C)[C@H]1OC(=O)C[C@H](O)CC[C@@](C)(O)[C@@H](OC(=O)N2CCNCC2)/C=C/[C@@H]1C", "note": "[D1, (2S,3S,6S,7R,10R,E)-7,10-dihydroxy-2-((R,2E,4E)-6-hydroxy-7-((2R,3R)-3-((2R,3S)-3-hydroxypentan-2-yl)oxiran-2-yl)-6-methylhepta-2,4-dien-2-yl)-3,7-dimethyl-12-oxooxacyclododec-4-en-6-yl piperazine-1-carboxylate]", "values": [{"measurement": "IC50", "setting": "[1]", "result": 16.5, "unit": "nM"}, {"measurement": "GI50", "setting": "OPM2 cells; OPM-2, 96 h, read-out: CTGlo Mean GI50 OPM2 96 h", "result": 287, "unit": "nM"}, {"measurement": "GI50", "setting": "OPM2 cells; OPM-2, 144 h", "result": 117, "unit": "nM"}, {"measurement": "AUC (nM * % relative viability)", "setting": "OPM2 cells; OPM2 cells, 6 days", "result": 649.8734, "unit": "nM * % relative viability"}, {"measurement": "LD50", "setting": "OPM2 cells; OPM2 cells, 6 days, CellTiter-Glo", "result": 256.8053, "unit": "nM"}, {"measurement": "RminAve", "setting": "OPM2 cells; OPM2 cells, 6 days, negative = cell death vs T0", "result": "−99.7805", "unit": "%"}, {"measurement": "CTGlo Mean LD50 OPM2 96 h", "setting": "OPM2 cells; payload alone, OPM2, 96 h", "result": 67.1, "unit": "nM"}, {"measurement": "GI50", "setting": "RPMI-8226 cells; Homo sapiens, RPMI-8226, 144 h", "result": 122, "unit": "nM"}, {"measurement": "AUC (nM * % relative viability)", "setting": "RPMI-8226 cells; RPMI8226 cells, 6 days", "result": 648.8833, "unit": "nM * % relative viability"}, {"measurement": "LD50", "setting": "RPMI-8226 cells; RPMI8226 cells, 6 days, CellTiter-Glo", "result": 253.1965, "unit": "nM"}, {"measurement": "RminAve", "setting": "RPMI-8226 cells; RPMI8226 cells, 6 days, negative = cell death vs T0", "result": "−99.6002", "unit": "%"}, {"measurement": "GI50", "setting": "U266B1 cells; Homo sapiens, 144 h", "result": 238, "unit": "nM"}, {"measurement": "AUC (nM * % relative viability)", "setting": "U266B1 cells; U266B1 cells, 6 days", "result": 712.6903, "unit": "nM * % relative viability"}, {"measurement": "LD50", "setting": "U266B1 cells; U266B1 cells, 6 days, CellTiter-Glo", "result": 504.8119, "unit": "nM"}, {"measurement": "RminAve", "setting": "U266B1 cells; U266B1 cells, 6 days, negative = cell death vs T0", "result": "−94.2191", "unit": "%"}, {"measurement": "GI50", "setting": "KMS-11 cells; Homo sapiens, KMS-11, 144 h", "result": 232, "unit": "nM"}, {"measurement": "AUC (nM * % relative viability)", "setting": "KMS-11 cells; KMS11 cells, 6 days", "result": 706.5255, "unit": "nM * % relative viability"}, {"measurement": "LD50", "setting": "KMS-11 cells; KMS11 cells, 6 days, CellTiter-Glo", "result": 485.9409, "unit": "nM"}, {"measurement": "RminAve", "setting": "KMS-11 cells; KMS11 cells, 6 days, negative = cell death vs T0", "result": "−99.3474", "unit": "%"}, {"measurement": "half-life at 20 μM", "setting": "[2]", "result": 24, "unit": "h"}]}]}
